Measurements published in DBAASP.
Converted amounts (≈) assume the structure as drawn. “And” between values parts separate entries of the source, which are not always exact repeats. Identical values can stand only once. Values belong to the molecule of their own block, whether it stands above or below them.

Columns and labels:
Assay in all cases: ≥ marks a high value that may be exact or a test limit, other limits are often not marked, values filed in µg/mL are converted to µM
[1] = test system: Aerococcus viridans
[2] = test system: Micrococcus luteus
[3] = test system: Bacillus megaterium
[4] = test system: Cronobacter sakazakii DPC 6440
[5] = test system: Listeria monocytogenes LO28
[6] = test system: Escherichia coli NEB5alpha
[7] = test system: Bacillus subtilis ATCC 6051
[8] = test system: Klebsiella aerogenes ATCC 13048
[9] = test system: Staphylococcus epidermidis ATCC 12228
[10] = test system: Escherichia coli DL7
[11] = test system: Pectobacterium carotovorum

Compound: CSCC[C@H](NC(=O)[C@H](CCCN=C(N)N)NC(=O)[C@H](CCC(N)=O)NC(=O)[C@@H]1CSSC[C@H](NC(=O)[C@@H](N)Cc2ccc(O)cc2)C(=O)N[C@@H](CC(N)=O)C(=O)N[C@@H](CCCN=C(N)N)C(=O)N[C@@H](CCCN=C(N)N)C(=O)N[C@@H]([C@@H](C)O)C(=O)NCC(=O)N[C@@H](CCCCN)C(=O)N1)C(=O)O [YCNRRTGKCQRM]
MIC [1]: 28.3 µM (≈ 42.8 µg/mL)
MIC [2]: 28.3 µM (≈ 42.8 µg/mL)
MIC [3]: 28.3 µM (≈ 42.8 µg/mL)

Compound: CC[C@H](C)[C@H](N)C(=O)N[C@@H](CC(N)=O)C(=O)NCC(=O)N[C@@H](CCSC)C(=O)N1CCC[C@H]1C(=O)N[C@@H](CCC(=O)O)C(=O)N[C@@H](CCC(=O)O)C(=O)N[C@H](C(=O)N[C@H](C(=O)N[C@@H](C)C(=O)N[C@@H](C)C(=O)O)C(C)C)C(C)C [INGMPEEVVAA]
MIC [6]: ≥ 1000 µM
MIC [7]: ≥ 1000 µM

Compound: CC[C@H](C)[C@H](NC(=O)[C@@H](N)C(C)C)C(=O)N[C@@H](Cc1cnc[nH]1)C(=O)N[C@@H](CCCCN)C(=O)N[C@@H](CC(C)C)C(=O)N[C@@H](C)C(=O)N[C@@H](CCCCN)C(=O)N[C@@H](CC(C)C)C(=O)N[C@@H](C)C(=O)N[C@@H](CCCCN)C(=O)N[C@@H](CCCCN)C(=O)N[C@@H](CC(C)C)C(=O)N[C@@H](C)C(=O)N[C@@H](CCCCN)C(=O)N[C@@H](CC(C)C)C(=O)N[C@@H](C)C(=O)N[C@@H](CCCCN)C(N)=O [VIHKLAKLAKKLAKLAK]
MIC [8]: ≥ 32 µM
MIC [9]: 0.25 µM (≈ 0.468 µg/mL)
MIC [10]: 0.25 µM and 0.125 µM

Second part, the molecule after the results:

MIC [4]: 19.5 µM (≈ 36.2 µg/mL)
MIC [5]: 2.44 µM (≈ 4.52 µg/mL)
Compound: CC[C@H](C)[C@H](NC(=O)[C@@H](NC(=O)[C@H](CCCCN)NC(=O)[C@@H](NC(=O)[C@H](CCCCN)NC(=O)[C@H](C)NC(=O)[C@H](CCC(N)=O)NC(=O)[C@@H](NC(=O)[C@@H](N)Cc1c[nH]c2ccccc12)[C@@H](C)CC)[C@@H](C)O)C(C)C)C(=O)N[C@@H](C)C(=O)N[C@@H](Cc1ccc(O)cc1)C(=O)N[C@H](C(=O)N[C@@H](CCCN=C(N)N)C(=O)N[C@@H](Cc1ccc(O)cc1)C(=O)N[C@@H](CC(C)C)C(=O)O)C(C)C [WIQAKTKVIAYVRYL]

MIC [4]: ≥ 312 µM
MIC [5]: ≥ 156 µM
Compound: CC[C@H](C)[C@H](NC(=O)[C@@H](N)Cc1c[nH]c2ccccc12)C(=O)N[C@@H](CCC(N)=O)C(=O)N1CCC[C@H]1C(=O)N[C@@H](CCCCN)C(=O)N[C@H](C(=O)N[C@@H](CCCCN)C(=O)N[C@H](C(=O)N[C@H](C(=O)N1CCC[C@H]1C(=O)N[C@@H](C)C(=O)N[C@H](C(=O)N[C@@H](CCCN=C(N)N)C(=O)N[C@@H](C)C(=O)N[C@@H](CC(C)C)C(=O)O)C(C)C)[C@@H](C)CC)C(C)C)[C@@H](C)O [WIQPKTKVIPAVRAL]

MIC [6]: ≥ 633 µM
MIC [7]: ≥ 1270 µM
Compound: CC(C)C[C@H](NC(=O)[C@H](CCCN=C(N)N)NC(=O)[C@H](CC(C)C)NC(=O)[C@H](CC(C)C)NC(=O)[C@H](CCC(N)=O)NC(=O)[C@H](CCC(=O)O)NC(=O)[C@@H](N)CC(C)C)C(=O)N[C@@H](CCCCN)C(=O)N[C@@H](CCCCN)C(=O)N[C@@H](Cc1ccc(O)cc1)C(=O)O [LEQLLRLKKY]

MIC [11]: 3.46 µM (≈ 8.38 µg/mL)
Compound: CC[C@H](C)[C@H](NC(=O)[C@H](C)NC(=O)[C@@H](N)CS)C(=O)N[C@@H](CCC(=O)O)C(=O)N[C@@H](Cc1cnc[nH]1)C(=O)N[C@@H](CCSC)C(=O)N[C@@H](CCCN=C(N)N)C(=O)N[C@H](C(=O)N1CCC[C@H]1C(=O)N[C@@H](CC(C)C)C(=O)N[C@@H](CCCCN)C(=O)N1CCC[C@H]1C(=O)N[C@@H](Cc1ccccc1)C(=O)N[C@@H](CO)C(=O)N[C@@H](Cc1ccccc1)C(=O)NCC(=O)N1CCC[C@H]1C(=O)N1CCC[C@H]1C(=O)N[C@@H](Cc1ccc(O)cc1)C(=O)N[C@@H](CC(N)=O)C(=O)N[C@@H](CC(C)C)C(=O)O)[C@@H](C)O [CAIEHMRTPLKPFSFGPPYNL]
